Results as given in patent US4957730A, “Antimycotic nail varnish” (Hoechst Aktiengesellschaft, priority 1985, dated 1990).
In brackets after ≈: the same amount, converted by molar mass.

Key:
[1] = tested on: Trichophyton mentagrophytes 109 (100/25); assay: in vitro series dilution test (MIC); assay type: cell-based; conditions: T. mentagrophytes
Text: (§1) The results of these experiments are shown in Table 1 in comparison with the efficacy of the pyridone compounds against the highly virulent skin fungus Trichophyton mentagrophytes 109 (100/25) in the in vitro series dilution test and in the guinea pig trichophytosis model.
*Minimum inhibitory concentration (MIC) in the series dilution test

[2] = tested on: Trichophyton mentagrophytes 109 (100/25); assay: guinea pig trichophytosis model, inhibition on the skin surface; set-up: concentration or dose not given beside the values; conditions: in vivo
Text: as §1
**Percentage inhibition on the skin surface in the guinea pig
Trichophytosis model (W. Dittmar, Mykosen 18 (8), 351-361 (1975)

T. mentagrophytes = assay: penetration test on excised pig skin: growth inhibition in the lowest region of the horny layer
Description: The test method for penetration capacity on excised skin from pigs enables the capacity to penetrate of an effective concentration of compounds horny tissue to be tested.
(§2) In the tests for the penetration capacity, the surface of shaved pieces of skin was first treated with 0.3% strength solutions of the compounds 1-8 and likewise with three similar compounds not claimed, in each case dissolved in a mixture of 1 ml of dimethyl sulfoxide and 9 ml of isopropanol, at room temperature and was washed again after 2 hours. The lowest region of the horny layer was then exposed by removing the superficial layers by peeling off with adhesive strips ten times in succession. The deep-lying horny layer now exposed was inoculated with virulent pathogens of nail mycoses (dermatophytes). Conclusions as to the level of the penetration capacity were drawn on the basis of the degree of growth inhibition found.
as §1
***Horny layer penetration: percentage growth inhibition by the substance
which has penetrated into the lowest part of the horny layer.
(§3) *Time between application of the product and stripping of the skin

[3] = tested on: Trichophyton mentagrophytes; assay: penetration test on horny human skin with nail varnishes: growth inhibition in the deep horny layer; conditions: for growth inhibition of Trichophyton mentagrophytes in the deep lying horny layer of human skin: in words, 1 or 2 hours
Description: as §2
In further experiments, the substantially thicker horny human skin was treated by the test method described above at room temperature for 1 or 2 hours with 3% strength nail varnishes of compounds 9 and 10 and likewise with a similar compound 4, which is not claimed, in comparison with the abovementioned nail varnish containing sulbentine. The varnish base of examples 9 and 10 and of comparison 4 and 5 was prepared by mixing the following constituents:
2-Hydroxy-4-methoxybenzophenone: 0.1%
Sodium dioctyl sulfosuccinate: 1.0%
50% strength solution of a copolymer of methyl vinyl ether and monobutyl maleate in isopropyl alcohol: 30.0%
as §3

[4] = Table 1, pig skin, 0.3% strength solutions, washed after 2 hours, lowest part of horny layer
[5] = humans, 3% strength varnishes, action time 60 min
[6] = humans, 3% strength varnishes, action time 120 min

| MIC [1] | SMILES | Inhibition (%) on skin [2] | Inhibition (%) in the horny layer (T. mentagrophytes; [4]) | further results |
| --- | --- | --- | --- | --- |
| 1.95 µg/mL (≈ 11.7 µM) | Cc1cc(C(C)C)n(O)c(=O)c1 [Comparison 1, reference compound] | 75,0% | 35,7% |  |
| 3.9 µg/mL (≈ 14 µM) | CCCCCCCCCCCc1cc(C)cc(=O)n1O [Comparison 2, reference compound] | 100,0% | 9,8% | Inhibition (%) in the deep horny layer (T. mentagrophytes; 2 h): 9,8%; Inhibition (%) in the deep horny layer [3, 5]: 51,4%; Inhibition (%) in the deep horny layer [3, 6]: 49,4%; growth inhibition of Trichophyton mentagrophytes in the deep lying horny layer of human skin ([3]; 3% strength varnishes): only an inadequate inhibiting effect |
| 3.9 µg/mL (≈ 15.2 µM) | Cc1cc(CCCCc2ccccc2)n(O)c(=O)c1 [Comparison 3, reference compound] | 88,0% | 24,2% |  |
| 1.95 µg/mL (≈ 8.73 µM) | CCCCCCCc1cc(C)cc(=O)n1O [Example 1] | 89,4% | 97,0% |  |
| 1.95 µg/mL (≈ 8.73 µM) | CCCCC(CC)c1cc(C)cc(=O)n1O (stereo not drawn) [Example 2] | 85,6% |  | Inhibition (%) in the horny layer (T. mentagrophytes; 2 h): 85,8% |
| 1.95 µg/mL (≈ 8.22 µM) | Cc1cc(CC(C)CC(C)(C)C)n(O)c(=O)c1 (stereo not drawn) [Example 3] | 91,9% | 99,6% |  |
| 1.95 µg/mL (≈ 9.41 µM) | Cc1cc(C2CCCCC2)n(O)c(=O)c1 [Example 4] | 88,0% | 98,0% |  |
| 1.95 µg/mL (≈ 8.29 µM) | Cc1cc(CCC2CCCCC2)n(O)c(=O)c1 [Example 5] | 88,0% | 81,2% |  |
| 1.95 µg/mL (≈ 8.89 µM) | Cc1cc(C2CC3CCC2C3)n(O)c(=O)c1 (stereo not drawn) [Example 6] | 88,0% | 79,9% |  |
| 1.95 µg/mL (≈ 7.58 µM) | Cc1ccc(Cc2cc(C)c(C)c(=O)n2O)c(C)c1 [Example 7] | 88,8% | 80,0% |  |
| 1.95 µg/mL (≈ 8.5 µM) | Cc1cc(CCc2ccccc2)n(O)c(=O)c1 [Example 8] | 88,0% | 81,9% |  |
|  | Cc1cc(CC(C)CC(C)(C)C)n(O)c(=O)c1 (stereo not drawn) [Example 9] |  |  | Inhibition (%) in the deep horny layer (T. mentagrophytes; 2 h): 99,6%; Inhibition (%) in the deep horny layer ([3]; 1 h): 99,0%; Inhibition (%) in the deep horny layer ([3]; 2 h): 99,9%; growth inhibition of Trichophyton mentagrophytes in the deep lying horny layer of human skin ([3]; 3% strength varnishes): almost completely or completely inhibit the growth |
|  | Cc1cc(C2CCCCC2)n(O)c(=O)c1 [Example 10] |  |  | Inhibition (%) in the deep horny layer (T. mentagrophytes; 2 h): 98,0%; Inhibition (%) in the deep horny layer [3, 5]: 100,0%; Inhibition (%) in the deep horny layer [3, 6]: 100,0%; growth inhibition of Trichophyton mentagrophytes in the deep lying horny layer of human skin ([3]; 3% strength varnishes): almost completely or completely inhibit the growth |
